Earlier results in patent US20240269158A1, “THERAPEUTIC AGENTS AND METHODS FOR TREATMENT OF BARTONELLOSIS” (THE ADMINISTRATORS OF THE TULANE EDUCATIONAL FUND, priority 2021, published 2024).

System: B. henselae
Settings: cited from earlier work

SMILES: CC[C@H]1OC(=O)[C@H](C)[C@@H](O[C@H]2C[C@@](C)(OC)[C@@H](O)[C@H](C)O2)[C@H](C)[C@@H](O[C@@H]2O[C@H](C)C[C@H](N(C)C)[C@H]2O)[C@](C)(O)C[C@@H](C)CN(C)[C@H](C)[C@@H](O)[C@]1(C)O [Azithromycin, azithromycin]
- activity against growing bacterial culture (growing culture): effective
- activity against stationary phase B. henselae (stationary phase): very poor activity
